Assay results as given in paper PMC11361638, “Chemical genetic screens reveal defective lysosomal trafficking as synthetic lethal with NF1 loss” (Journal of Cell Science, 2024).

Target: T1, BORCS7 (Homo sapiens, UniProt Q96B45)
T1 construct: endogenous full-length protein in U87-MG cells, subunit of the eight-protein BORC
T1 sequence (Q96B45 1-106): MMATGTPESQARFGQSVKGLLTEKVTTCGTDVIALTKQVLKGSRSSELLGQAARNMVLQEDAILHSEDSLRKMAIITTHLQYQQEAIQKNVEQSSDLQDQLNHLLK
Assay: click-chemistry pulldown on alkyne resin, LC-MS/MS
Assay type: cell-based
Conditions: U87-MG cells treated with 2 µM for 2 h, lysed in 8 M urea; labelled compound; binding subunit within BORC not resolved

**Q.** For Cn1cnnc1S/C=C/C(=O)c1ccc(CCN=[N+]=[N-])cc1 [az-Y102], which iBAQ area ratio is on record?
**A.** Click-chemistry enriched pulldown results for p21 and BORCS7.
